Measured values from ChEMBL document CHEMBL1201862, “PubChem BioAssay data set” (2004).
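Each compound was tested at five concentrations against cells in 96-well plates for 48 hours. GI50 marks 50% less growth.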 Active and inactive are the calls of the source. No stated cut-off is given here; in the data, active = GI50 up to about 1.1 µM and inactive = higher.

Key:
Test in all cases: DTP human tumour cell line panel, 48 h
[1] = system: U-251
[2] = system: NCI-H23
[3] = system: SF-295
[4] = system: SK-MEL-28
[5] = system: SW-620
[6] = system: M14
[7] = system: 786-0
[8] = system: NCI-H522
[9] = system: MOLT-4
[10] = system: SNB-19
[11] = system: CCRF-CEM
[12] = system: UO-31
[13] = system: RXF 393
[14] = system: IGROV-1
[15] = system: A498
[16] = system: SR
[17] = system: Malme-3M
[18] = system: SF-268
[19] = system: SF-539
[20] = system: CAKI-1

Measured: GI50

COc1ccc(/C=N/CCC/N=C/c2ccc(OC)cc2O)c(O)c1
inactive: [1] 40.6 µM | [2] > 100 µM | [3] 17.7 µM | [4] 41 µM | [5] 57.9 µM | [6] 75.3 µM | [7] 76.6 µM | [8] > 100 µM | [9] 49.1 µM | [10] 47 µM | [11] 29.6 µM | [12] 46 µM | [13] > 100 µM | [14] 43.4 µM | [15] > 100 µM | [16] 54.6 µM | [17] 23.8 µM

CCC1(O)C(=O)OCc2c1cc1n(c2=O)Cc2cc3cc(OC)c(OC)cc3nc2-1 (centres undefined)
inactive: [1] 6.52 µM | [2] 15 µM | [3] 10.9 µM | [4] > 100 µM | [6] 26.4 µM | [7] 6.28 µM | [8] 8.61 µM | [9] 4.85 µM | [10] 16 µM | [11] 2.81 µM | [12] 32 µM | [13] 16.9 µM | [14] 13.9 µM | [15] 28.1 µM | [16] 2.29 µM | [18] 11.4 µM | [19] 5.74 µM | [17] > 100 µM

O=C1c2scc(-c3ccc(F)cc3)c2-n2cccc21
inactive: [20] 10.3 µM | [1] 15.7 µM | [3] 26.2 µM | [4] 29.2 µM | [5] 27.4 µM | [6] 29.5 µM | [7] 15.7 µM | [8] 17.3 µM | [9] 27.9 µM | [10] 19.8 µM | [11] 28.6 µM | [12] 8.99 µM | [13] 26.1 µM | [14] 18.3 µM | [15] 1.47 µM | [16] 11 µM | [18] 36.4 µM | [17] 52.1 µM

CC(C)(C)OC(=O)NCCCCC1NC(=O)[C@@H]2Cc3c([nH]c4ccccc34)C(c3ccccc3)N2C1=O (some centres undefined)
inactive: [20] 50.5 µM | [1] 35.1 µM | [2] 25.9 µM | [3] 22 µM | [4] 64.6 µM | [5] 54 µM | [6] 28.6 µM | [7] 25.1 µM | [8] 23 µM | [9] 15.6 µM | [10] 50.1 µM | [11] 26.7 µM | [12] 10.7 µM | [13] 14.7 µM | [14] 40.3 µM | [15] 72.6 µM | [16] 13.6 µM | [18] 14 µM | [17] 31.1 µM

Oc1ccccc1CNCc1nc2ccccc2[nH]1
inactive: [20] 69.3 µM | [1] 41.5 µM | [2] > 100 µM | [3] 45.8 µM | [4] > 100 µM | [5] 55.3 µM | [6] 86.3 µM | [7] 26.1 µM | [8] > 100 µM | [9] 65.5 µM | [10] > 100 µM | [11] 29 µM | [12] 11.2 µM | [13] 75 µM | [14] > 100 µM | [15] > 100 µM | [16] 50 µM | [18] > 100 µM | [19] > 100 µM

CCn1c(-c2ccc(/N=N/Nc3ccc(-c4n[nH]c(=S)n4CC)cc3)cc2)n[nH]c1=S
inactive: [20] 2.7 µM | [1] 2.57 µM | [2] 2.53 µM | [3] 2.46 µM | [4] 4.18 µM | [5] 4.8 µM | [6] 2.65 µM | [7] 4.24 µM | [8] 1.67 µM | [9] 2.17 µM | [10] 2.55 µM | [11] 3.91 µM | [12] 2.33 µM | [13] 3.43 µM | [14] 3.09 µM | [15] 3.3 µM | [16] 3.47 µM | [18] 3.24 µM | [17] 2.57 µM

COc1cc(/C=C2/SC(c3ccccc3)N(c3cc(Cl)ccc3Cl)C2=O)cc(OC)c1OC (centres undefined)
inactive: [20] 23.2 µM | [1] 63.4 µM | [2] > 100 µM | [3] 47.1 µM | [4] 87.7 µM | [5] 49.9 µM | [6] 50.9 µM | [7] > 100 µM | [8] 47.1 µM | [9] > 100 µM | [10] > 100 µM | [11] 38.5 µM | [12] 75.3 µM | [13] 45.8 µM | [14] 44.9 µM | [15] > 100 µM | [16] 45.5 µM | [17] 62.8 µM

Clc1ccccc1/C=C\C1(c2ccccc2)OCCO1
inactive: [20] 17.3 µM | [1] 12.2 µM | [2] 10.2 µM | [3] 16.7 µM | [4] 21.1 µM | [5] 16.1 µM | [6] > 100 µM | [7] 16.5 µM | [8] 13.4 µM | [9] 15.9 µM | [11] 19.7 µM | [12] > 100 µM | [13] 19.1 µM | [14] 14.2 µM | [15] 20.7 µM | [16] 3.58 µM | [18] 13.1 µM | [19] 24.9 µM

c1ccc(CN(Cc2ccccn2)Cn2cccn2)nc1
inactive: [20] > 100 µM | [1] 39.2 µM | [2] 50.5 µM | [3] 62.7 µM | [4] 15.7 µM | [5] 48 µM | [6] 25.9 µM | [7] 91.2 µM | [8] > 100 µM | [9] 29.2 µM | [10] > 100 µM | [11] 29.5 µM | [12] 79.6 µM | [13] 57.5 µM | [15] 38.2 µM | [16] 33.4 µM | [18] 76.6 µM | [19] > 100 µM

CC(=O)c1cc(C)n2c1CS[C@@H]2c1ccccc1
inactive: [20] 70.5 µM | [1] 28.4 µM | [2] 65.6 µM | [3] 65.9 µM | [4] > 100 µM | [5] 33.7 µM | [6] > 100 µM | [7] 19.7 µM | [8] 30.2 µM | [9] 25.2 µM | [10] > 100 µM | [11] 16.3 µM | [12] 64.3 µM | [13] 31.5 µM | [14] 32.7 µM | [15] > 100 µM | [16] 27 µM | [18] 90.2 µM | [17] > 100 µM

Oc1nc(-c2cccc(F)c2)nc2ccccc12
inactive: [20] > 100 µM | [1] 36.5 µM | [2] 32.5 µM | [3] 39.4 µM | [4] > 76.7 µM | [5] > 87.7 µM | [6] 62.1 µM | [7] 38.6 µM | [8] 43.9 µM | [9] > 100 µM | [10] 19.9 µM | [11] > 21.3 µM | [12] 30.8 µM | [13] 29.9 µM | [14] 57.1 µM | [15] 30.3 µM | [16] > 77.3 µM | [18] 27.1 µM | [17] 45.8 µM

Cc1cccc2c1C/C(=C1\CCc3c(C)cccc31)C2=O
inactive: [20] > 100 µM | [1] > 100 µM | [2] > 100 µM | [3] > 100 µM | [4] > 100 µM | [5] > 100 µM | [6] > 100 µM | [7] 90.4 µM | [9] > 100 µM | [10] > 100 µM | [11] > 100 µM | [12] > 100 µM | [13] > 100 µM | [14] > 100 µM | [15] > 100 µM | [16] > 100 µM | [18] > 100 µM | [17] > 100 µM

O=C1CC(c2ccc(Cl)cc2)C2(C(=O)NC(=S)NC2=O)C(c2ccc(Cl)cc2)C1 (centres undefined)
inactive: [20] 25.1 µM | [1] 29.2 µM | [2] 18.8 µM | [3] 17.6 µM | [4] 16.1 µM | [5] 21.5 µM | [6] 22.2 µM | [7] 36.5 µM | [9] 25.5 µM | [10] 18.4 µM | [11] 24.2 µM | [12] 23.9 µM | [13] 14.5 µM | [15] 15.9 µM | [16] 30.3 µM | [18] 16.2 µM | [19] 20 µM | [17] 21.4 µM

COc1ccc2nccc(SCC(=O)O)c2c1
inactive: [20] > 100 µM | [1] > 100 µM | [2] > 100 µM | [3] > 100 µM | [4] > 100 µM | [5] > 100 µM | [6] > 100 µM | [7] > 100 µM | [8] > 100 µM | [9] > 100 µM | [10] > 100 µM | [11] > 100 µM | [12] > 100 µM | [13] > 100 µM | [14] > 100 µM | [15] > 100 µM | [16] > 100 µM | [18] > 100 µM

CCOC(=O)C(C)(C)Oc1ccc2c(=O)cc(-c3ccc(Cl)cc3)oc2c1
inactive: [1] > 100 µM | [2] > 100 µM | [3] > 100 µM | [4] > 100 µM | [5] > 100 µM | [6] > 100 µM | [7] > 100 µM | [9] > 100 µM | [10] > 100 µM | [11] > 100 µM | [12] > 100 µM | [13] > 100 µM | [14] > 100 µM | [15] > 100 µM | [16] > 100 µM | [18] > 100 µM | [19] > 100 µM | [17] > 100 µM
